Measured values published in article PMC6888133, “Identification and Characterization of a Fatty Acid- and Retinoid-Binding Protein Gene (Ar-far-1) from the Chrysanthemum Foliar Nematode, Aphelenchoides ritzemabosi” (International Journal of Molecular Sciences, 2019).

Target: T1, rAr-FAR-1 (Ar-FAR-1) (Aphelenchoides ritzemabosi, UniProt A0A2D0WIZ9)
T1 construct: full-length 181 aa ORF with signal peptide (18 aa, cleavage Ala18/Glu19); E. coli BL21(DE3)
T1 sequence (A0A2D0WIZ9 1-181): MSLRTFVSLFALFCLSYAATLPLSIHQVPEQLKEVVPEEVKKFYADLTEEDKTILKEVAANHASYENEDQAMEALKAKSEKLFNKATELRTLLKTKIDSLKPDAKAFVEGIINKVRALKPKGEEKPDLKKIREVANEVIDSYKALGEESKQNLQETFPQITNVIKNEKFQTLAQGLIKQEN
Assay: fluorescence titration
Type: binding

SMILES | Kd [nM]
CN(C)c1cccc2c(S(=O)(=O)NCCCCCCCCCCC(=O)O)cccc12 [DAUDA, 11-(5-dimethylaminonaphthalene-1-sulfonylamino) undecanoic acid] | 40.5
CC1=C(/C=C/C(C)=C/C=C/C(C)=C/CO)C(C)(C)CCC1 [retinol] | 67.9
